Experimental data taken from patent US20240366598A1, “GLUCOSE-DEPENDENT INSULINOTROPIC POLYPEPTIDE RECEPTOR ANTAGONISTS AND USES THEREOF” (Pfizer Inc., priority 2023, published 2024).
Where a name gives a salt, the structure may show the parent alone.

The molecules below were run against T1, human Glucose-dependent Insulinotropic Polypeptide Receptor (hGIPR) (Homo sapiens, UniProt P48546) (assay: Functional in vitro GIPR antagonist potency assay (cAMP HTRF, CHO-K1 cells stably expressing hGIPR, hGIP stimulation at about EC80)). Conditions: geometric mean, hGIP at estimated EC80, examples marked ^2: overall geometric mean of multiple forms (including salts) tested.
T1 sequence (P48546 22-466): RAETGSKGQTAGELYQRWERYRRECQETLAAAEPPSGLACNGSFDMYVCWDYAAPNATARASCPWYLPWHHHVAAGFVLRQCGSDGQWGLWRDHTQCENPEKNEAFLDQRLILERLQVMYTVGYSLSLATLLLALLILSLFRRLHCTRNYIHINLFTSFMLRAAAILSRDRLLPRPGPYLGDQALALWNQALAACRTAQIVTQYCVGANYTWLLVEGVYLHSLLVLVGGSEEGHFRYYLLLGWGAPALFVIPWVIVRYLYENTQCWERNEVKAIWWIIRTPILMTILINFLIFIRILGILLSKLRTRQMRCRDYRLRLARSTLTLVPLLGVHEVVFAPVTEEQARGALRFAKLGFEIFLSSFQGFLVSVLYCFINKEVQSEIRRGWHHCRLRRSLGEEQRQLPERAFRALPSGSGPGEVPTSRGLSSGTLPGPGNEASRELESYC
Type: cell-based
In short: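 HTRF quantification of cAMP after stimulation with hGIP at an estimated EC80 for 30 min at 37 °C. Before stimulation, hGIPR-expressing CHO-K1 cells were exposed 2 h to test compound in IBMX-containing buffer, with 0.5% DMSO final. Percent effect is referenced to agonist alone (0%) and to 80 μM of a reference antagonist (100%), and runs required the agonist concentration to fall within the on-the-day EC50–EC90.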

Q: For `Cc1cc(NC(=O)N2CCC[C@@H]2C(=O)Nc2ccc(-c3ccc(C(=O)O)cc3)cc2)cnc1C(C)C` [Example 145, 4′-[(1-{[5-methyl-6-(propan-2-yl)pyridin-3-yl]carbamoyl}-D-prolyl)amino][1,1′-biphenyl]-4-carboxylic acid, trifluoroacetate salt], which IC50 is on record?
A: 70 nM

Q: For `Cc1cc(NC(=O)N2CCC[C@@H]2C(=O)Nc2ccc(-c3ccc(C(=O)O)cc3)cc2)ncc1C(C)C` [Example 146, 4′-[(1-{[4-methyl-5-(propan-2-yl)pyridin-2-yl]carbamoyl}-D-prolyl)amino][1,1′-biphenyl]-4-carboxylic acid, trifluoroacetate salt], which IC50 is on record?
A: 9.7 nM

Q: Which IC50 does the source give for `CC(c1ccc(NC(=O)N2CCC[C@@H]2C(=O)Nc2ccc(-c3ccc(C(=O)O)cc3)cc2)cc1)C(F)(F)F` (stereo partly drawn) [Example 147, 4′-[(1-{[4-(1,1,1-trifluoropropan-2-yl)phenyl]carbamoyl}-D-prolyl)amino][1,1′-biphenyl]-4-carboxylic acid] here?
A: 13 nM

Q: With `CC(C)c1ccc(NC(=O)N2CCC[C@@H]2C(=O)Nc2ccc(-c3cccc(C(N)=O)c3)cc2)cc1` [Example 148, (2R)-N^2-(3′-carbamoyl[1,1′-biphenyl]-4-yl)-N^1-[4-(propan-2-yl)phenyl]pyrrolidine-1,2-dicarboxamide] as the molecule, how does the IC50 read?
A: 240 nM

Q: Which IC50 does the source give for `O=C(O)c1ccc(-c2ccc(NC(=O)[C@H]3CCCN3C(=O)Nc3ccc(C4CC4)c(F)c3)cc2)cc1` [Example 149, 4′-({1-[(4-cyclopropyl-3-fluorophenyl)carbamoyl]-D-prolyl}amino)[1,1′-biphenyl]-4-carboxylic acid] here?
A: 21 nM

Q: With `Cc1cc(NC(=O)[C@H]2CCCN2C(=O)Nc2ccc(C(C)C)cc2)cnc1-c1ccc(C(=O)O)cc1` [Example 150, 4-{3-methyl-5-[(1-{[4-(propan-2-yl)phenyl]carbamoyl}-D-prolyl)amino]pyridin-2-yl}benzoic acid] as the molecule, how does the IC50 read?
A: 86 nM

Q: `COc1cc(C(=O)O)ccc1-c1ccc(NC(=O)[C@H]2CCCN2C(=O)Nc2ccc(C(C)C)cc2)nc1` [Example 151, 3-methoxy-4-{6-[(1-{[4-(propan-2-yl)phenyl]carbamoyl}-D-prolyl)amino]pyridin-3-yl}benzoic acid] was tested. Which IC50 did it give?
A: 110 nM

Q: For `CC(C)c1ccc(NC(=O)N2CCC[C@@H]2C(=O)Nc2ccc3cc(C(=O)O)ccc3c2)cc1F` [Example 152, 6-[(1-{[3-fluoro-4-(propan-2-yl)phenyl]carbamoyl}-D-prolyl)amino]naphthalene-2-carboxylic acid], which IC50 is on record?
A: 44 nM

Q: For `O=C(O)c1ccc(-c2ccc(NC(=O)[C@H]3CCCN3C(=O)NCc3ccc(C(F)(F)F)cc3)nc2)cc1` [Example 153, 4-(6-{[1-({[4-(trifluoromethyl)phenyl]methyl}carbamoyl)-D-prolyl]amino}pyridin-3-yl)benzoic acid], which IC50 is on record?
A: 11 nM

Q: `CC(C)c1ccc(NC(=O)N2C[C@H]3C[C@H]3[C@@H]2C(=O)Nc2ccc(-c3cccc(C(=O)O)c3)cc2)cc1` [Example 154, 4′-{[(1R,2R,5S)-3-{[4-(propan-2-yl)phenyl]carbamoyl}-3-azabicyclo[3.1.0]hexane-2-carbonyl]amino}[1,1′-biphenyl]-3-carboxylic acid] was tested. Which IC50 did it give?
A: 58 nM

Q: `O=C(O)c1ccc(-c2ccc(NC(=O)[C@H]3CCCN3C(=O)Nc3ccc(CC(F)(F)F)cc3)cc2)cc1` [Example 155, 4′-[(1-{[4-(2,2,2-trifluoroethyl)phenyl]carbamoyl}-D-prolyl)amino][1,1′-biphenyl]-4-carboxylic acid] was tested. Which IC50 did it give?
A: 22 nM

Q: Which IC50 does the source give for `COc1cc(C(=O)O)ccc1-c1ccc(NC(=O)[C@H]2CCCN2C(=O)Nc2ccc(C(C)C)c(C)c2)nc1` [Example 156, 3-methoxy-4-{6-[(1-{[3-methyl-4-(propan-2-yl)phenyl]carbamoyl}-D-prolyl)amino]pyridin-3-yl}benzoic acid] here?
A: 45 nM

Q: Which IC50 does the source give for `O=C(O)c1ccc(-c2ccc(NC(=O)[C@H]3CCCN3C(=O)NCc3ccc(C(F)(F)F)cc3)cc2)cc1` [Example 157, 4′-{[1-({[4-(trifluoromethyl)phenyl]methyl}carbamoyl)-D-prolyl]amino}[1,1′-biphenyl]-4-carboxylic acid] here?
A: 10 nM
